The results in this text go back to the NIST ThermoML archive (doi:10.1016/j.jct.2007.02.002).

The conditions of the data set: 101.33 kPa, Liquid; for speed of sound: Sing-around technique in a fixed-path interferometer.

One may read the mass density as mass per unit of volume. As a reminder, the speed of sound is how fast a sound wave travels through the sample.

Numbers after ± are expanded uncertainties.

Turning to `COC(C)(C)C` [2-methoxy-2-methylpropane], the mass density is, setting by setting: (288.15 K) 745.79 ± 0.27 kg/m3; (293.15 K) 740.6 ± 0.28 kg/m3; (298.15 K) 735.35 ± 0.28 kg/m3; (303.15 K) 730.06 ± 0.28 kg/m3; (308.15 K) 724.73 ± 0.29 kg/m3. In addition, the speed of sound by setting is: (288.15 K) 1082.4 ± 1.2 m/s; (293.15 K) 1059.4 ± 1.2 m/s; (298.15 K) 1036.1 ± 1.2 m/s; (303.15 K) 1013 ± 1.2 m/s; (308.15 K) 990.1 ± 1.1 m/s.
For `CCCCO` [butan-1-ol], the mass density by setting is: (288.15 K) 813.24 ± 0.4 kg/m3; (293.15 K) 809.48 ± 0.4 kg/m3; (298.15 K) 805.67 ± 0.4 kg/m3; (303.15 K) 801.85 ± 0.4 kg/m3; (308.15 K) 797.99 ± 0.41 kg/m3. Besides, the speed of sound by setting is: (288.15 K) 1273.7 ± 1.7 m/s; (293.15 K) 1257 ± 1.7 m/s; (298.15 K) 1239.8 ± 1.7 m/s; (303.15 K) 1222.7 ± 1.7 m/s; (308.15 K) 1205.9 ± 1.7 m/s.
For the compound `CCCCCC` [hexane], the mass density is 663.87 ± 0.68 kg/m3 (288.15 K); 659.44 ± 0.69 kg/m3 (293.15 K); 654.95 ± 0.7 kg/m3 (298.15 K); 650.4 ± 0.7 kg/m3 (303.15 K); 645.82 ± 0.71 kg/m3 (308.15 K). In addition, the speed of sound by setting is: (288.15 K) 1121.4 ± 1.3 m/s; (293.15 K) 1099 ± 1.3 m/s; (298.15 K) 1076.3 ± 1.2 m/s; (303.15 K) 1053.6 ± 1.2 m/s; (308.15 K) 1031.1 ± 1.2 m/s.
